Activity calls are given as the source filed them. The calls are words filed in the database; no cut-off is given here.
Assays:
[1] = molecular target: Neuropilin-1 (Homo sapiens) (UniProt O14786); experiment: Inhibition of [125I]-VEGF-A165 binding to NRP1 (unknown origin) transfected in HUVECs at 12 uM incubated for 2 hrs by plate reader analysis relative to control; type: cell-based; conditions: HUVEC
[2] = molecular target: Vascular endothelial growth factor receptor 2 (Homo sapiens, UniProt P35968); experiment: Inhibition of VEGFR2 (unknown origin)
Neuropilin-2 = Neuropilin-2 (Homo sapiens, UniProt O60462); experiment: Inhibition of NRP2 (unknown origin)
Activin receptor type-2A = Activin receptor type-2A (Homo sapiens, UniProt P27037); experiment: Inhibition of ACVR2 (unknown origin)
[3] = molecular target: ALK tyrosine kinase receptor (Homo sapiens, UniProt Q9UM73); experiment: Inhibition of ALK (unknown origin)
[4] = molecular target: Tyrosine-protein kinase Blk (Homo sapiens, UniProt P51451); experiment: Inhibition of BLK (unknown origin)
[5] = molecular target: Cyclin-dependent kinase 2 (Homo sapiens, UniProt P24941); experiment: Inhibition of CDK2 (unknown origin)
[6] = molecular target: STE20-like serine/threonine-protein kinase (Homo sapiens, UniProt Q9H2G2); experiment: Inhibition of SLK (unknown origin)
[7] = molecular target: Dual specificity protein kinase TTK (Homo sapiens, UniProt P33981); experiment: Inhibition of TTK (unknown origin)
[8] = molecular target: Mitogen-activated protein kinase kinase kinase 20 (Homo sapiens, UniProt Q9NYL2); experiment: Inhibition of ZAK (unknown origin)
[9] = molecular target: Mitogen-activated protein kinase 3 (Homo sapiens, UniProt P27361); experiment: Inhibition of ERK1 (unknown origin)
[10] = molecular target: Cyclin-G-associated kinase (Homo sapiens, UniProt O14976); experiment: Inhibition of GAK (unknown origin)
[11] = molecular target: Tyrosine-protein kinase HCK (Homo sapiens, UniProt P08631); experiment: Inhibition of HCK (unknown origin)
[12] = molecular target: Tyrosine-protein kinase Lck (Homo sapiens, UniProt P06239); experiment: Inhibition of LCK (unknown origin)
[13] = molecular target: Hepatocyte growth factor receptor (Homo sapiens, UniProt P08581); experiment: Inhibition of MET (unknown origin)
[14] = molecular target: Proto-oncogene tyrosine-protein kinase ROS (Homo sapiens, UniProt P08922); experiment: Inhibition of ROS1 (unknown origin)
Tubulin (Homo sapiens) [15] = molecular target: T1, Tubulin (Homo sapiens) (UniProt P68371+Q9H4B7+P0DPH7+P68366+Q13509+Q71U36+P04350+Q3ZCM7+P07437+P68363+Q9BQE3+Q6PEY2+Q13885+Q9BVA1+Q9BUF5); experiment: Inhibition of tubulin polymerization in human PC-3 cells assessed as increase in nuclear disruption incubated for 48 hrs by immunofluorescence assay; type: cell-based; conditions: dose 0.1-12.5 µM
Tubulin (Homo sapiens) [16] = molecular target: T1, Tubulin (Homo sapiens); experiment: Inhibition of tubulin polymerization in human PC-3 cells assessed as appearance of blurred nucleus at 2.5 to 12.5 uM incubated for 48 hrs by immunofluorescence assay; type: cell-based; conditions: dose 2.5-12.5 µM
CWR22R = experiment: Cytotoxicity against human 22Rv1 cells assessed as inhibition of cell viability incubated for 48 hrs by MTT assay; type: functional, cell-based
DU-145 = experiment: Cytotoxicity against human DU-145 cells assessed as inhibition of cell viability incubated for 48 hrs by MTT assay; type: functional, cell-based
PC-3M = experiment: Cytotoxicity against human PC-3M cells assessed as inhibition of cell viability incubated for 48 hrs by MTT assay; type: functional, cell-based
PC-3 [17] = experiment: Induction of cell cycle arrest in human PC-3 cells assessed as G0/G1 phase cells at 0.1 uM by flow cytometry analysis (reference value: 94.76%); type: functional
PC-3 [18] = experiment: Induction of cell cycle arrest in human PC-3 cells assessed as accumulation of cells at G2/M phase at 0.1 uM by flow cytometry analysis (reference value: 3.24%); type: functional
PC-3 [19] = experiment: Induction of cell cycle arrest in human PC-3 cells assessed as S phase cells at 0.1 uM by flow cytometry analysis (reference value: 2%); type: functional
PC-3 [20] = experiment: Induction of cell cycle arrest in human PC-3 cells assessed as accumulation of cells at G2/M phase at 0.5 uM by flow cytometry analysis (reference value: 3.24%); type: functional
PC-3 [21] = experiment: Induction of cell cycle arrest in human PC-3 cells assessed as S phase cells at 0.5 uM by flow cytometry analysis (reference value: 2%); type: functional
PC-3 [22] = experiment: Induction of cell cycle arrest in human PC-3 cells assessed as accumulation of cells at G2/M phase at 2.5 uM by flow cytometry analysis (reference value: 3.24%); type: functional
PC-3 [23] = experiment: Induction of cell cycle arrest in human PC-3 cells assessed as G0/G1 phase cells at 12.5 uM by flow cytometry analysis (reference value: 94.76%); type: functional
PC-3 [24] = experiment: Induction of cell cycle arrest in human PC-3 cells assessed as increase in p-cdc2 expression at 0.5 to 12.5 uM incubated for 48 hrs by Western blotting analysis; type: functional, cell-based; conditions: dose 0.5-12.5 µM
PC-3 [25] = experiment: Induction of cell cycle arrest in human PC-3 cells assessed as decrease in cyclin-B1 expression at 0.5 to 12.5 uM incubated for 48 hrs by Western blotting analysis; type: functional, cell-based; conditions: dose 0.5-12.5 µM
PC-3 [26] = experiment: Induction of apoptosis in human PC-3 cells assessed as viable cells at 0.5 uM by Annexin-V FITC staining based flow cytometry analysis (reference value: 96.8%); type: functional; conditions: read-out: Activity
PC-3 [27] = experiment: Induction of apoptosis in human PC-3 cells assessed as early apoptotic cells at 0.5 uM by Annexin-V FITC staining based flow cytometry analysis (reference value: 1.51%); type: functional
PC-3 [28] = experiment: Induction of apoptosis in human PC-3 cells assessed as late apoptotic cells at 0.5 uM by Annexin-V FITC staining based flow cytometry analysis (reference value: 1.67%); type: functional
PC-3 [29] = experiment: Induction of apoptosis in human PC-3 cells assessed as viable cells at 2.5 uM by Annexin-V FITC staining based flow cytometry analysis (reference value: 96.8%); type: functional; conditions: read-out: Activity
PC-3 [30] = experiment: Induction of apoptosis in human PC-3 cells assessed as late apoptotic cells at 2.5 uM by Annexin-V FITC staining based flow cytometry analysis (reference value: 1.67%); type: functional
PC-3 [31] = experiment: Induction of apoptosis in human PC-3 cells assessed as viable cells at 12.5 uM by Annexin-V FITC staining based flow cytometry analysis (reference value: 96.8%); type: functional; conditions: read-out: Activity
[32] = Toxicity in BALB/c mouse xenografted with human PC-3 cells assessed as change body weight at 5 to 10 mg/kg, ip administered every 4 days for 20 days; type: organism-based; conditions: in vivo, 480 h, dose 5-10 mg/kg, time 20 day
[33] = Toxicity in BALB/c mouse xenografted with human PC-3 cells assessed as change in lung morphology at 5 to 10 mg/kg, ip administered every 4 days for 20 days by H and E staining based inverted microscopic assay; type: organism-based; conditions: in vivo, 480 h, dose 5-10 mg/kg, time 20 day
[34] = Cmax in Sprague-Dawley rat at 1.5 mg/kg, po measured upto 24 hrs by LC-MS/MS analysis; type: ADME, organism-based; set-up: time < 24 hrs, dose 1.5 mg/kg, route po; conditions: in vivo
[35] = Tmax in Sprague-Dawley rat at 1.5 mg/kg, po measured upto 24 hrs by LC-MS/MS analysis; type: ADME, organism-based; conditions: in vivo

Sequence of Hepatocyte growth factor receptor (P08581 whole entry): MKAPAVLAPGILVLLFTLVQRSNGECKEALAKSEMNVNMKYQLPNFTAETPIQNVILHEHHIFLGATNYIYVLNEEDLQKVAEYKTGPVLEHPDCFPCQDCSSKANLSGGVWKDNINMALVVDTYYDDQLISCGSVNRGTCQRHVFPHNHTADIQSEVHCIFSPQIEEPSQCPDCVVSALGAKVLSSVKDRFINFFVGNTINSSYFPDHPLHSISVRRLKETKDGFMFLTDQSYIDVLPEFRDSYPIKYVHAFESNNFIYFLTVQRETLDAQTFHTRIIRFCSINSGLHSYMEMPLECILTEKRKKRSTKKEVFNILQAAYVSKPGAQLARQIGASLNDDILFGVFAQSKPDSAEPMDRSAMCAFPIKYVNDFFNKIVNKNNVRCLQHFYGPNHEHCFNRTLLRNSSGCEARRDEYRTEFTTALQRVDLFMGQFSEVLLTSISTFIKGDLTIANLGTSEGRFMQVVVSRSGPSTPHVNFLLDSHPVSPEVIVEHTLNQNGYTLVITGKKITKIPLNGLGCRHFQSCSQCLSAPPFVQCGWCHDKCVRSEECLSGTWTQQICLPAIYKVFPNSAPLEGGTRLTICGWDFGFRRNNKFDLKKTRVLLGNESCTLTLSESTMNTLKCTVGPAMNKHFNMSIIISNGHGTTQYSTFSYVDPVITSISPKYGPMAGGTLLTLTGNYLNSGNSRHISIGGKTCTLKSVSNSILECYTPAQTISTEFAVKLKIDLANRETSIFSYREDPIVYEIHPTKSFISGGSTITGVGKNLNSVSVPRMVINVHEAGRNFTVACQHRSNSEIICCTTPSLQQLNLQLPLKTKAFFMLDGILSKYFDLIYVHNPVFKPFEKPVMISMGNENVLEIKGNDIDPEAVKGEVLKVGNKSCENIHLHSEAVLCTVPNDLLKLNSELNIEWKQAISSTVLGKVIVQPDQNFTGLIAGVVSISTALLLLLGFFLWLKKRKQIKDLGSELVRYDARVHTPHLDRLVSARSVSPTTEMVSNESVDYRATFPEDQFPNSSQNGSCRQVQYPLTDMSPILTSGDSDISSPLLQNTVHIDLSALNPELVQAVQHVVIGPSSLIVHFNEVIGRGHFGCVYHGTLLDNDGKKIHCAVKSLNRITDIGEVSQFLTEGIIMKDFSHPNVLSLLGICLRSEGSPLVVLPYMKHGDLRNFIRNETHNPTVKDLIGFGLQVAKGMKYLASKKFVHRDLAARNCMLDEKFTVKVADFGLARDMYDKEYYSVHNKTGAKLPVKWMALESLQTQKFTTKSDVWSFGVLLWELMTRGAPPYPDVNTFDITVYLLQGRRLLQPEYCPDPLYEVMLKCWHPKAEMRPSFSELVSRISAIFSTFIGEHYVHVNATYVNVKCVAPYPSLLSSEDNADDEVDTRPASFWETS
Sequence of Neuropilin-2 (O60462 whole entry): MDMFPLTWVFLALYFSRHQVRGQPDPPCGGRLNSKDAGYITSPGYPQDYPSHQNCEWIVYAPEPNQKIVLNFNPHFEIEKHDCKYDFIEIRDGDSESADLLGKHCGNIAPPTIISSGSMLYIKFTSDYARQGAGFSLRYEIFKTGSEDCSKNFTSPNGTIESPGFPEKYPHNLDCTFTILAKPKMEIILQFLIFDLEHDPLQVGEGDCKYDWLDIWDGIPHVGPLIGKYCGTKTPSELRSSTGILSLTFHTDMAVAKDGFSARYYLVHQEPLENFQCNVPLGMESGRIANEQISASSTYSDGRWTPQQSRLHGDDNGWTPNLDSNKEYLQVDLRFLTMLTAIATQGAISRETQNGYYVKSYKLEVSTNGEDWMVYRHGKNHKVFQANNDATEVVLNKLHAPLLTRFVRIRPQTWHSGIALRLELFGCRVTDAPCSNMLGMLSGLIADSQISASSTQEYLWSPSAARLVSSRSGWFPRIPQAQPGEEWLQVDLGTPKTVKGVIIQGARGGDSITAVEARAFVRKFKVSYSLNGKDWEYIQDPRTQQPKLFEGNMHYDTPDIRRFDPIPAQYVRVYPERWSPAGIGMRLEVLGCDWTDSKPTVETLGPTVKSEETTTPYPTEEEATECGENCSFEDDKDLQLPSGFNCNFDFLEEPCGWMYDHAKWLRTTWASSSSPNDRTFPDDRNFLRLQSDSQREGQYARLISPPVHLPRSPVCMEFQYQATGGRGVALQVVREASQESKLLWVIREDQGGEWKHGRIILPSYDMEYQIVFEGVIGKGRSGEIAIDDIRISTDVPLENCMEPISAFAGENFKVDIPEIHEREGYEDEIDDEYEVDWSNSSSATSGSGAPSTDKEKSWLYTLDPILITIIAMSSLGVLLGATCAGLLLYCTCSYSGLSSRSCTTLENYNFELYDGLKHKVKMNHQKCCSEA
Sequence of STE20-like serine/threonine-protein kinase (Q9H2G2 whole entry): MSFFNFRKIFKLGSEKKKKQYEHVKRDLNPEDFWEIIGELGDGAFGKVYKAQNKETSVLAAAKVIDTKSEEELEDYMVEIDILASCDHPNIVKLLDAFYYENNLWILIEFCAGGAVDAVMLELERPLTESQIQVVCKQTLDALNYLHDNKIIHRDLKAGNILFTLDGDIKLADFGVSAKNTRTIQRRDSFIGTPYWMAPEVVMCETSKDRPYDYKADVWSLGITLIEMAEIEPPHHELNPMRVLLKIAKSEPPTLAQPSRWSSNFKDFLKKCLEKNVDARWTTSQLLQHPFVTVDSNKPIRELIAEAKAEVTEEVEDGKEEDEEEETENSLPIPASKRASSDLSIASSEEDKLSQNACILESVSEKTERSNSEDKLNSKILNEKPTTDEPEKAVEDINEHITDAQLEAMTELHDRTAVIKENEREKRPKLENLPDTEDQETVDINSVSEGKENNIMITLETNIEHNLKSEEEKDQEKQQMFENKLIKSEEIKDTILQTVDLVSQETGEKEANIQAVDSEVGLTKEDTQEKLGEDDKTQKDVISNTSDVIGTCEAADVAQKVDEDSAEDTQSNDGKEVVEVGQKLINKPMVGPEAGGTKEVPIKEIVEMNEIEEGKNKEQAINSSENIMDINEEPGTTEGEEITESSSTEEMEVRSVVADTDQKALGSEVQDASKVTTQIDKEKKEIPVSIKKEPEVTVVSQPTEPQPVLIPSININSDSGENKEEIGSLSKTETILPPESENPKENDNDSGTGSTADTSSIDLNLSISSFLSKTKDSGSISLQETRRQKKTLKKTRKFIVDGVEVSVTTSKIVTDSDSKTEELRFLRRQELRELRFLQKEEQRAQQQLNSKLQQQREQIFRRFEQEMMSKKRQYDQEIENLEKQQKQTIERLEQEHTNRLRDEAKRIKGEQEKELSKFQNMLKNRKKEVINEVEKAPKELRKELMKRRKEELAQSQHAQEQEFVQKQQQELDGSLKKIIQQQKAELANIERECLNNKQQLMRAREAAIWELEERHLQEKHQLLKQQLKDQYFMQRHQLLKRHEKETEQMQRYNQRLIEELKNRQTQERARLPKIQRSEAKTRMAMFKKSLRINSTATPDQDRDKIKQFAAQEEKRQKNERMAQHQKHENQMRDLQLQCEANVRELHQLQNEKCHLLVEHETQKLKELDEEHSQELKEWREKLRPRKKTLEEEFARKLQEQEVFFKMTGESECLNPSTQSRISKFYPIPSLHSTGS
Sequence of Tyrosine-protein kinase Lck (P06239 whole entry): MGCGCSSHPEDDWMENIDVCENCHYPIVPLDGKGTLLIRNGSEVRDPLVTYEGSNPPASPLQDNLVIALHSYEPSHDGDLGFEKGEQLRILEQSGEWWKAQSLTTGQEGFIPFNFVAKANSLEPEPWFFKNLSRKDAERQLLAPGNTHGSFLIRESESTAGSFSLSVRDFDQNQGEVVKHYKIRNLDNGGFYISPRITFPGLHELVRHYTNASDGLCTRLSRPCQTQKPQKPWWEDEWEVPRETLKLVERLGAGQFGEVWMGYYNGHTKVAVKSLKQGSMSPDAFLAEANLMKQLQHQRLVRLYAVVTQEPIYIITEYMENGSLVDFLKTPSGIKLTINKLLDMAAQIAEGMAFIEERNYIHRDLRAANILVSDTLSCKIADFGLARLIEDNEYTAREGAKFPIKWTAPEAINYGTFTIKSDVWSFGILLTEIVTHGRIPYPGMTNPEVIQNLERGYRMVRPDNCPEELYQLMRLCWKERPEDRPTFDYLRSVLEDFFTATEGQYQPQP
Sequence of Neuropilin-1 (Homo sapiens) (O14786 whole entry): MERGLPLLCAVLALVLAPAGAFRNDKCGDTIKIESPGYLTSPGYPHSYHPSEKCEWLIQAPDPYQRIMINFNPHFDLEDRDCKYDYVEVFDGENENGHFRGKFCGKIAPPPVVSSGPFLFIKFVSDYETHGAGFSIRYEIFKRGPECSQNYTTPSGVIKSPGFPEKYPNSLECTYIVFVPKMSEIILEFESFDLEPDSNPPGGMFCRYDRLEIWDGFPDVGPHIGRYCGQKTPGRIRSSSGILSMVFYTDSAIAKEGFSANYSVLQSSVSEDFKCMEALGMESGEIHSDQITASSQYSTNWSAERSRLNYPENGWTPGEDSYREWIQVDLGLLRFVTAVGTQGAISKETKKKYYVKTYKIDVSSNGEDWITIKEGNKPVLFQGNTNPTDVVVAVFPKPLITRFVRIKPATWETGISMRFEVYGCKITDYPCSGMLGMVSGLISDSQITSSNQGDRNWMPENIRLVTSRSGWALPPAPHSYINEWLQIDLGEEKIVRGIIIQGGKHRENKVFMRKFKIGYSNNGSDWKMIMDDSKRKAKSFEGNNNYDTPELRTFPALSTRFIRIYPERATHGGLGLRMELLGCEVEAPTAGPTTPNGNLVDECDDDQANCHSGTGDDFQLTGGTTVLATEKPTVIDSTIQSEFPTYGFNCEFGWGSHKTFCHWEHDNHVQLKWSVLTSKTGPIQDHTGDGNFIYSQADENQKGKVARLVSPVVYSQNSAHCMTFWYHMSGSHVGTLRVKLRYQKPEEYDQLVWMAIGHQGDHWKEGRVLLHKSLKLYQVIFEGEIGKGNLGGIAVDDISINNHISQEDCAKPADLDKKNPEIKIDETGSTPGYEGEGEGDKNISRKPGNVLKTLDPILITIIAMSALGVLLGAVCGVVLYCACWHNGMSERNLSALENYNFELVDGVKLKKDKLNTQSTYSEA

Molecule `COc1ccc(/C=C\c2cc(OC)c(OC)c(OC)c2)cc1NC(=O)CCC(=O)N[C@@H](CCCNC(=N)N)C(=O)O` has an inhibition [1] of 94%, an IC50 [2] greater than 10 µM and an IC50 (Neuropilin-2) greater than 10 µM. It also gave an IC50 (Activin receptor type-2A) greater than 10 µM, an IC50 [3] greater than 10 µM and an IC50 [4] greater than 10 µM. The IC50 [5] was greater than 10 µM, the IC50 [6] was greater than 10 µM and the IC50 [7] was greater than 10 µM. It also gave an IC50 [8] greater than 10 µM, an IC50 [9] greater than 10 µM and an IC50 [10] greater than 10 µM. It also gave an IC50 [11] greater than 10 µM, an IC50 [12] greater than 10 µM and an IC50 [13] greater than 10 µM. The IC50 [14] was greater than 10 µM, the inhibition (Tubulin (Homo sapiens) [15]) was “Dose-Dependent Effect” and the inhibition (Tubulin (Homo sapiens) [16]) was “Active”. The Activity (CWR22R) was “Active”, the Activity (DU-145) was “Active” and the Activity (PC-3M) was “Active”. It also gave an Activity (PC-3 [17]) of 93.57%, an Activity (PC-3 [18]) of 4.48% and an Activity (PC-3 [19]) of 1.95%. It also gave an Activity (PC-3 [20]) of 8.96%, an Activity (PC-3 [21]) of 6.01% and an Activity (PC-3 [22]) of 11.58%. The Activity (PC-3 [23]) was 51.13%, the Activity (PC-3 [24]) was “Active” and the Activity (PC-3 [25]) was “Active”. It also gave a viability at 0.5 µM (PC-3 [26]) of 91.6%, an Activity (PC-3 [27]) of 2.95% and an Activity (PC-3 [28]) of 5.32%. The viability at 2.5 µM (PC-3 [29]) was 89.3%, the Activity (PC-3 [30]) was 5.6% and the viability at 12.5 µM (PC-3 [31]) was 89.4%. The Activity [32] was “Non-Toxic”, the Activity [33] was “Non-Toxic” and the Cmax [34] was 1330 ng/mL. For the same molecule, the Tmax [35] was 30 min.

— ChEMBL document CHEMBL5375999, “Discovery of a Dual Tubulin and Neuropilin-1 (NRP1) Inhibitor with Potent In Vivo Anti-Tumor Activity via Pharmacophore-based Docking Screening, Structure Optimization, and Biological Evaluation” (J Med Chem, 2023)
